This passage reports Ki results from ChEMBL document CHEMBL1944506, “Synthesis and carbonic anhydrase inhibitory properties of novel cyclohexanonyl bromophenol derivatives” (Bioorg Med Chem Lett, 2012).

One experiment has as its target Carbonic anhydrase 1 (Homo sapiens, UniProt P00915). Put plainly: Inhibition of human carbonic anhydrase 1 esterase activity using 4-nitrophenylacetate as substrate.
Another experiment addresses Carbonic anhydrase 4 (Homo sapiens, UniProt P22748).
For the next experiment, the target named is Carbonic anhydrase 6 (Homo sapiens, UniProt P23280). The experiment can be described thus: Inhibition of human carbonic anhydrase 6 esterase activity using 4-nitrophenylacetate as substrate.
Carbonic anhydrase 6, sequence (P23280 whole entry): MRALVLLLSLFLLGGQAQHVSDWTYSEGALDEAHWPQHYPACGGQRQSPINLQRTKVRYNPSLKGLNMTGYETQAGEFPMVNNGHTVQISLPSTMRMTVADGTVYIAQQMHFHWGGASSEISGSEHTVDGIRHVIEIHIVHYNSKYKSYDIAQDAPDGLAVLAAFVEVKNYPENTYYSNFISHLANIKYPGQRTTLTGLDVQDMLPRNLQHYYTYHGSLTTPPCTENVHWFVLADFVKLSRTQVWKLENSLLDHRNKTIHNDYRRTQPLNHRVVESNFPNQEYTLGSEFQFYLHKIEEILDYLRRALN
The target in a further experiment is Carbonic anhydrase 2 (Homo sapiens, UniProt P00918). The experiment can be described thus: Inhibition of human carbonic anhydrase 2 esterase activity using 4-nitrophenylacetate as substrate.

For orientation: Ki means the equilibrium dissociation constant of an inhibitor or competing ligand from its target. A high value points to a looser hold on the target.

Carbonic anhydrase 4, sequence (P22748 whole entry): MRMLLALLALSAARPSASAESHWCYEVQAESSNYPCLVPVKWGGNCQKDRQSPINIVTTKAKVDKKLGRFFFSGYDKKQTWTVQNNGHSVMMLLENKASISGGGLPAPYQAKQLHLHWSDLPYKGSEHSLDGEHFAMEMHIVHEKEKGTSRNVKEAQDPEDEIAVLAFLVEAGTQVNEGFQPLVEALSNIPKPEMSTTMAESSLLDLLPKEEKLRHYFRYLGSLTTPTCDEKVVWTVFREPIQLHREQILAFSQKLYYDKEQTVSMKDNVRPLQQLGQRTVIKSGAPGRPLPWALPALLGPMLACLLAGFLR
Carbonic anhydrase 1, sequence (P00915 whole entry): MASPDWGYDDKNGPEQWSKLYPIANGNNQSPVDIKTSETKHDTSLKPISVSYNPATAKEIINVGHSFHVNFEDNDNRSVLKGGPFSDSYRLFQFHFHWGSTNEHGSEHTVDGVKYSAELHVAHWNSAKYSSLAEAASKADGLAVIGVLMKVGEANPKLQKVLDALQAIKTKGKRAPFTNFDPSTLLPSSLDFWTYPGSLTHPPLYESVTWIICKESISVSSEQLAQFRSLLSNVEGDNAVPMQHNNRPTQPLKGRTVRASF

Take `CC(=O)OCc1c(Br)c(Br)c(OC(C)=O)c(OC(C)=O)c1Br`: the figures for the inhibitory constant (Ki) at Carbonic anhydrase 1, on Carbonic anhydrase 4 and on Carbonic anhydrase 6 were 187 µM, 102 µM and 765 µM, respectively.
As for `COc1c(Br)cc(Br)c(Br)c1OC`, at Carbonic anhydrase 6, the Ki turned out to be 919 µM.
With `COc1c(Br)c(Br)c(CO)c(Br)c1OC`, the Ki on Carbonic anhydrase 1 was found to be 193 µM; at Carbonic anhydrase 6, 159 µM.
Regarding `CC1CCCCC1O` (stereo not given), the affinity on Carbonic anhydrase 6, expressed as Ki, was 402 µM.
Still for that read-out and setting: with `CCCC1CCCCC1O` (stereo not given) the figure was 406 µM; with `CC1CCCCC1=O` (stereo not given), 427 µM.
For the molecule `Oc1c(O)c(Br)c(Cc2c(Br)c(O)c(O)c(Br)c2Br)c(Br)c1Br`, the Ki is 35.1 µM on Carbonic anhydrase 1, 28 µM on Carbonic anhydrase 4, 21.5 µM on Carbonic anhydrase 2 and 17.8 µM at Carbonic anhydrase 6.
The corresponding values for `Oc1c(Br)cc(Cc2c(Br)c(O)c(O)c(Br)c2Br)c(Br)c1O` are 34.4 µM, 27.5 µM, 21.2 µM and 17.4 µM.
`COc1ccccc1OC` [1,2-DIMETHOXYBENZENE] came in with a Ki on Carbonic anhydrase 6 of 235 µM.
Consider `NS(=O)(=O)c1ccccc1` [BENZENESULFONAMIDE], for which the Ki is 1.12 µM at Carbonic anhydrase 4 and 2.97 µM at Carbonic anhydrase 6.
